Source: patent US20160207928A1, “NOVEL COMPOUNDS FOR THE TREATMENT OF CANCER” (BAYER PHARMA AKTIENGESELLSCHAFT, priority 2013, published 2016)
pIC50: −log10 of the molar value.

Tests used:
human kinase Mps-1 = molecular target: T1, human kinase Mps-1 (Homo sapiens, UniProt P33981); assay: Mps-1 kinase assay (TR-FRET, 10 μM ATP); assay type: biochemical; settings: N-terminally GST-tagged human full length recombinant Mps-1, read-out: Mps-1 Inhibition, IC50 (Assay with 10 μM ATP)
T1 construct: N-terminally GST-tagged human full length recombinant Mps-1 kinase; purchased Invitrogen, Karslruhe, Germany PV4071
T1 sequence (P33981 1-857): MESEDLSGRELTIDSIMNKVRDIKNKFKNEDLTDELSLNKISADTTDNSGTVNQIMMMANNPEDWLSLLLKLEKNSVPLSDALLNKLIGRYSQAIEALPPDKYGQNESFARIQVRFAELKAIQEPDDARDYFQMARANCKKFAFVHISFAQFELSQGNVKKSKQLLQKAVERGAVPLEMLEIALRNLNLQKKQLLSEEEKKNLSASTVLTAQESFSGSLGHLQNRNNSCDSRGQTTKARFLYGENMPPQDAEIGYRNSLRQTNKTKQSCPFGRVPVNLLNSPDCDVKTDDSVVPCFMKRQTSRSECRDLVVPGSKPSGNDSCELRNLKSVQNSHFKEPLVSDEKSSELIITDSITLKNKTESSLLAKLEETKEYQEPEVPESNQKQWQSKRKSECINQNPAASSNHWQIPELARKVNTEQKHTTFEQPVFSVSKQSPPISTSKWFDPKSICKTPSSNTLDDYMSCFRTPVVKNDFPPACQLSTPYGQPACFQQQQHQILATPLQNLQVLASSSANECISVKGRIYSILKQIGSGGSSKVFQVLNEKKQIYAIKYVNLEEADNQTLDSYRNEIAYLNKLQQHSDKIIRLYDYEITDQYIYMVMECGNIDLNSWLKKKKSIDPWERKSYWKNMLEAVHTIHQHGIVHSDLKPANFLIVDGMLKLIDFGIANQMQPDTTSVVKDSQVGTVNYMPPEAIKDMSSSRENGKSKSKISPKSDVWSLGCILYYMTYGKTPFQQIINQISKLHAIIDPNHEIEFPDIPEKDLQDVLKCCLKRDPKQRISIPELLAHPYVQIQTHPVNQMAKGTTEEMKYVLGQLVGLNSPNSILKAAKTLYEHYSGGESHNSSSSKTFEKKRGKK
Experimental: The human kinase Mps-1 phosphorylates a biotinylated substrate peptide. Detection of the phosphorylated product is achieved by time-resolved fluorescence resonance energy transfer (TR-FRET) from Europium-labelled anti-phospho-Serine/Threonine antibody as donor to streptavidin Labelled with cross-linked allophycocyanin (SA-XLent) as acceptor. Compounds are tested for their inhibition of the kinase activity.
N-terminally GST-tagged human full length recombinant Mps-1 kinase (purchased from Invitrogen, Karslruhe, Germany, cat. no PV4071) was used. As substrate for the kinase reaction a biotinylated peptide of the amino-acid sequence PWDPDDADITEILG (C-terminus in amide form, purchased from Biosynthan GmbH, Berlin) was used.
For the assay 50 nl of a 100-fold concentrated solution of the test compound in DMSO was pipetted into a black low volume 384 well microtiter plate (Greiner Bio-One, Frickenhausen, Germany), 2 μl of a solution of Mps-1 in assay buffer [0.1 mM sodium-ortho-vanadate, 10 mM MgCl2, 2 mM DTT, 25 mM Hepes pH 7.7, 0.05% BSA, 0.001% Pluronic F-127] were added and the mixture was incubated for 15 min at 22° C. to allow pre-binding of the test compounds to Mps-1 before the start of the kinase reaction. Then the kinase reaction was started by the addition of 3 μl of a solution of […] (ATP, 16.7 μM=>final conc. in the 5 μl assay volume is 10 μM) and peptide substrate (1.67 μM=>final conc. in the 5 μl assay volume is 1 μM) in assay buffer and the resulting mixture was incubated for a reaction time of 60 min at 22° C. The concentration of Mps-1 in the assay was adjusted to the activity of the enzyme lot and was chosen appropriate to have the assay in the linear range, typical enzyme concentrations were in the range of about 1 nM (final conc. in the 5 μl assay volume). The reaction was stopped by the addition of 3 μl of a solution of HTRF detection reagents (100 mM Hepes pH 7.4, 0.1% BSA, 40 mM EDTA, 140 nM Streptavidin-XLent [#61GSTXLB, Fa. Cis Biointernational, Marcoule, France], 1.5 nM anti-phospho(Ser/Thr)-Europium-antibody [#AD0180, PerkinElmer LAS, Rodgau-Jügesheim, Germany].
The resulting mixture was incubated 1 h at 22° C. to allow the binding of the phosphorylated peptide to the anti-phospho(Ser/Thr)-Europium-antibody. Subsequently the amount of phosphorylated substrate was evaluated by measurement of the resonance energy transfer from the Europium-labelled anti-phospho(Ser/Thr) antibody to the Streptavidin-XLent. Therefore, the fluorescence emissions at 620 nm and 665 nm after excitation at 350 nm was measured in a Viewlux TR-FRET reader (PerkinElmer LAS, Rodgau-Jügesheim, Germany). The “blank-corrected normalized ratio” (a Viewlux specific readout, similar to the traditional ratio of the emissions at 665 nm and at 622 nm, in which blank and Eu-donor crosstalk are subtracted from the 665 nm signal before the ratio is calculated) was taken as the measure for the amount of phosphorylated substrate. The data were normalised (enzyme reaction without inhibitor=0% inhibition, all other assay components but no enzyme=100% inhibition).

[1] = test system: HeLa human cervical tumor cells; assay: HeLa cell proliferation assay (crystal violet staining); assay type: cell-based; settings: 96 h, 4 days incubation, read-out: Inhibition of cell proliferation, cell Line: HeLa IC50
Experimental: Cultivated tumor cells (MCF7, hormone dependent human mammary carcinoma cells, ATCC HTB22; NCI-H460, human non-small cell lung carcinoma cells, ATCC HTB-177; DU 145, hormone-independent human prostate carcinoma cells, ATCC HTB-81; HeLa-MaTu, human cervical carcinoma cells, EPO-GmbH, Berlin; HeLa-MaTu-ADR, multidrug-resistant human cervical carcinoma cells, EPO-GmbH, Berlin; HeLa human cervical tumor cells, ATCC CCL-2; B16F10 mouse melanoma cells, ATCC CRL-6475) were plated at a density of 5000 cells/well (MCF7, DU145, HeLa-MaTu-ADR), 3000 cells/well (NCI-H460, HeLa-MaTu, HeLa), or 1000 cells/well (B16F10) in a 96-well multititer plate in 200 μl of their respective growth medium supplemented 10% fetal calf serum. After 24 hours, the cells of one plate (zero-point plate) were stained with crystal violet (see below), while the medium of the other plates was replaced by fresh culture medium (200 μl), to which the test substances were added in various concentrations (0 μM, as well as in the range of 0.01-30 μM; the final concentration of the solvent dimethyl sulfoxide was 0.5%). The cells were incubated for 4 days in the presence of test substances. Cell proliferation was determined by staining the cells with crystal violet: the cells were fixed by adding 20 μl/measuring point of an 11% glutaric aldehyde solution for 15 minutes at room temperature. After three washing cycles of the fixed cells with water, the plates were dried at room temperature. The cells were stained by adding 100 μl/measuring point of a 0.1% crystal violet solution (pH 3.0). After three washing cycles of the stained cells with water, the plates were dried at room temperature. The dye was dissolved by adding 100 μl/measuring point of a 10% acetic acid solution. The extinction was determined by photometry at a wavelength of 595 nm. The change of cell number, in percent, was calculated by normalization of the measured values to the extinction values of the zero-point plate (=0%) and the extinction of the untreated (0 μm) cells (=100%). The IC50 values were determined by means of a 4 parameter fit using the company's own software.
The compounds of the present invention are characterized by the following IC50 values, determined in a HeLa cell proliferation assay (as described above): […]

Row | SMILES | pIC50 (human kinase Mps-1) | pIC50 [1]
1 | N#Cc1ccccc1Nc1nc2cnc(-c3cccc(C(=O)NC4CCCC4)c3)cn2n1 [Example 3.5, 3-{2-[(2-cyanophenyl)amino][1,2,4]triazolo[1,5-a]pyrazin-6-yl}-N-cyclopentylbenzamide] | 7.45 | –
2 | N#Cc1c(F)cccc1Nc1nc2cnc(-c3ccc(NC(=O)CC4CC4)cc3)cn2n1 [Example 3.6, N-(4-{2-[(2-cyano-3-fluorophenyl)amino][1,2,4]triazolo[1,5-a]pyrazin-6-yl}phenyl)-2-cyclopropylacetamide] | 7.84 | –
3 | N#Cc1ccccc1Nc1nc2cnc(-c3ccc(N)cc3)cn2n1 [Example 3.7, 2-{[6-(4-aminophenyl)[1,2,4]triazolo[1,5-a]pyrazin-2-yl]amino}benzonitrile] | 6.35 | –
4 | COc1ccccc1Nc1nc2cnc(-c3cc(C)c(O)c(C)c3)cn2n1 [Example 3.8, 4-{2-[(2-methoxyphenyl)amino][1,2,4]triazolo[1,5-a]pyrazin-6-yl}-2,6-dimethylphenol] | 7.15 | –
5 | N#Cc1ccccc1Nc1nc2cnc(-c3cccc(C(=O)NC4CCCCC4)c3)cn2n1 [Example 3.9, 3-{2-[(2-cyanophenyl)amino][1,2,4]triazolo[1,5-a]pyrazin-6-yl}-N-cyclohexylbenzamide] | 7.16 | –
6 | COc1cc(C(=O)N2CCOCC2)ccc1Nc1nc2ccc(-c3ccc(NC(=O)Cc4ccc(F)cc4)cc3)cc2s1 [Example 4.1, 2-(4-fluorophenyl)-N-[4-(2-{[2-methoxy-4-(morpholin-4-ylcarbonyl)phenyl]amino}-1,3-benzothiazol-6-yl)phenyl]acetamide] | ≥ 9.00 | –
7 | COc1cc(S(C)(=O)=O)ccc1Nc1nc2ccc(-c3ccc(NC(=O)Cc4ccc(F)cc4)cc3)cc2s1 [Example 4.2, 2-(4-fluorophenyl)-N-[4-(2-{[2-methoxy-4-(methylsulfonyl)phenyl]amino}-1,3-benzothiazol-6-yl)phenyl]acetamide] | 8.54 | –
8 | Nc1nc2ccc(-c3ccc(NC(=O)Cc4ccc(F)cc4)cc3)cc2s1 [Example 4.3, N-[4-(2-amino-1,3-benzothiazol-6-yl)phenyl]-2-(4-fluorophenyl)acetamide] | 8.07 | –
9 | COc1cc(S(C)(=O)=O)ccc1Nc1nc2cc(-c3ccc(NC(=O)[C@H](C)c4ccc(F)cc4)cc3)ccn2n1 [Example 5.1, (2R)-2-(4-fluorophenyl)-N-[4-(2-{[2-methoxy-4-(methylsulfonyl)phenyl]amino}[1,2,4]triazolo[1,5-a]pyridin-7-yl)phenyl]propanamide] | ≥ 9.00 | 6.93
10 | COc1cc(C(=O)N2CC(F)C2)ccc1Nc1nc2cc(-c3ccc(NC(=O)[C@H](C)c4ccc(F)cc4)cc3)ccn2n1 [Example 5.2, (2R)—N-{4-[2-({4-[(3-fluoroazetidin-1-yl)carbonyl]-2-methoxyphenyl}amino)[1,2,4]triazolo[1,5-a]pyridin-7-yl]phenyl}-2-(4-fluorophenyl)propanamide] | ≥ 9.00 | 7.62
11 | C[C@@H](C(=O)Nc1ccc(-c2ccn3nc(Nc4ccc(C(=O)N5CC(F)C5)cc4OCC(F)(F)F)nc3c2)cc1)c1ccc(F)cc1 [Example 5.3, (2R)—N-{4-[2-({4-[(3-fluoroazetidin-1-yl)carbonyl]-2-(2,2,2-trifluoroethoxy)phenyl}amino)[1,2,4]triazolo[1,5-a]pyridin-7-yl]phenyl}-2-(4-fluorophenyl)propanamide] | ≥ 9.00 | 7.89
12 | C[C@@H](C(=O)Nc1ccc(-c2ccn3nc(Nc4ccc(S(C)(=O)=O)cc4OCC(F)(F)F)nc3c2)cc1)c1ccc(F)cc1 [Example 5.5, (2R)-2-(4-fluorophenyl)-N-[4-(2-{[4-(methylsulfonyl)-2-(2,2,2-trifluoroethoxy)phenyl]amino}[1,2,4]triazolo[1,5-a]pyridin-7-yl)phenyl]propanamide] | ≥ 9.00 | 7.09
13 | COc1cc(C(=O)N2CCC2)ccc1Nc1nc2cc(-c3ccc(NC(=O)[C@H](C)c4ccc(F)cc4)cc3)ccn2n1 [Example 5.6, (2R)—N-[4-(2-{[4-(azetidin-1-ylcarbonyl)-2-methoxyphenyl]amino}[1,2,4]triazolo[1,5-a]pyridin-7-yl)phenyl]-2-(4-fluorophenyl)propanamide] | ≥ 9.00 | 7.24
14 | COc1cc(S(C)(=O)=O)ccc1Nc1cn2nc(-c3ccc(NC(=O)[C@H](C)c4ccc(F)cc4)cc3)ccc2n1 [Example 6.1, (2R)-2-(4-fluorophenyl)-N-[4-(2-{[2-methoxy-4-(methylsulfonyl)phenyl]amino}imidazo[1,2-b]pyridazin-6-yl)phenyl]propanamide] | ≥ 9.00 | 6.30
15 | COc1cc(S(C)(=O)=O)cnc1Nc1cn2cc(-c3ccc(NC(=O)[C@H](C)c4ccc(F)cc4)cc3)ccc2n1 [Example 7.1, (2R)-2-(4-fluorophenyl)-N-[4-(2-{[3-methoxy-5-(methylsulfonyl)pyridin-2-yl]amino}imidazo[1,2-a]pyridin-6-yl)phenyl]propanamide] | ≥ 9.00 | –
